Measurements published in ChEMBL document CHEMBL1151590, “Synthesis and anti-HIV activity of dibenzylbutyrolactone lignans” (Bioorg Med Chem Lett, 1996).
≈ marks a conversion by molar mass, not a printed value. Blank lines part the entries; values can stand above or below the compound they belong to.

Experiments:
[1] = test system: H9; test: Compound was tested for cytotoxic activity against acutely infected H9 cell growth.; format: functional, cell-based; conditions: Homo sapiens
[2] = test system: H9; test: Concentration which inhibited HIV-1 replication by 50% in acutely infected H9 cells; format: functional, cell-based; conditions: Homo sapiens

Structure (SMILES): COc1ccc(C[C@@H]2COC(=O)C2)cc1OC
- IC50 [1]: 100 µg/mL (≈ 423 µM)
- EC50 [2]: 34 µg/mL (≈ 144 µM)

Structure (SMILES): COc1ccc(C[C@@H]2COC(=O)[C@H]2Cc2ccc(O)c(O)c2)cc1OC
- IC50 [1]: 6 µg/mL (≈ 16.7 µM)
- EC50 [2]: 1.5 µg/mL (≈ 4.19 µM)

Structure (SMILES): COc1ccc(C[C@@H]2COC(=O)[C@H]2Cc2ccccc2)cc1OC
- IC50 [1]: 20 µg/mL (≈ 61.3 µM)
- EC50 [2]: 2.2 µg/mL (≈ 6.74 µM)

Structure (SMILES): COc1ccc(C[C@@H]2COC(=O)[C@H]2Cc2ccc(O)cc2)cc1OC
- IC50 [1]: 0.8 µg/mL (≈ 2.34 µM)
- EC50 [2]: 0.25 µg/mL (≈ 0.73 µM)

Now from value to compound, other results behind:

- EC50 [2]: 1.8 µg/mL (≈ 5.26 µM)
Structure (SMILES): COc1ccc(C[C@@H]2COC(=O)[C@H]2Cc2cccc(O)c2)cc1OC
- IC50 [1]: 4 µg/mL (≈ 11.7 µM)

- EC50 [2]: 0.16 µg/mL (≈ 0.43 µM)
Structure (SMILES): COc1cc(C[C@@H]2C(=O)OC[C@H]2Cc2ccc(OC)c(OC)c2)ccc1O
- IC50 [1]: 0.8 µg/mL (≈ 2.15 µM)
